These results are taken from patent publication US20250129091A1, “THIENOPYRROLOTRIAZINE COMPOUNDS, THEIR PREPARATION AND THEIR THERAPEUTIC USE” (Sanofi, priority 2022, published 2025).

SMILES strings stand for the structures. pIC50: −log10 of the molar value. Where a name gives a salt, the structure may show the parent alone.

The first experiment relates to NLRP3 inflammasome. The experiment is described as follows: IL-1β secretion assay (LPS-primed, nigericin-activated THP-1 cells, MSD readout). The class given is cell-based. The settings on record: Homo sapiens, LPS-primed, read-out: IL1b IC50. The method, then: Monocytic THP-1 cells (DSMZ) were maintained in RPMI media (RPMI 1640 Medium (1×) +10% FBS, Eurobio CVFSVFOO—OU). Cells were then plated at 16,000 cells per well in 96-well round bottom cell culture plates (TPP, ref 92097) and maintained with RPMI and 0.1% Bovine Serum Albumin solution. Activation of the NLRP3 inflammasome requires both an NF-kB-dependent priming step and the addition of a NLRP3 activator. The priming step was induced by LPS (10 ng/mL, Sigma, ref:L4391) for 3 h at 37° C., then compound, in a 1:3.10 serial dilution series in DMSO 1:100, and the activator nigericin (Sigma Aldrich, ref: SML1779) 10 μM (final concentration) were added to the cells and co-incubated for 2 h. 50 μL supernatant was removed, and IL-1β levels were monitored using an MSD assay (Electro Chemical Luminescence Immunoassay (ECLI) according to manufacturers' instructions.
IC50 values were calculated from the plot of percentage of inhibition versus the inhibitor concentration by a logistics fit according to: y=A2+(A1−A2)/(1+(x/IC50)^p) where y is the %-inhibition at the inhibitor concentration, x. A1 is the lowest inhibition value, i.e., 0%, and A2 the maximum inhibition value, i.e., 100%. The exponent, p, is the Hill coefficient. The curve fitting was conducted with an internally developed software.
On to `CC(C)c1nn(CC(=O)NC2CN3CCC2CC3)c(=O)c2cc3ccsc3n12` (stereo not shown) [Example 39, 2-(8-isopropyl-5-oxothieno[3′,2′:4,5]pyrrolo[1,2-d][1,2,4]triazin-6(5H)-yl)-N-(quinuclidin-3-yl)acetamide], for which the pIC50 (in general, −log10 of the IC50, conventionally taken in molar units) is 5.65.

Staying with this experiment, now noted: Homo sapiens, THP-1, LPS-primed, read-out: IL1b IC50.
Consider `CC(=O)NCC12CC(NC(=O)Cn3nc(C(C)C)n4c(cc5ccsc54)c3=O)(C1)C2` [Example 74, N-[3-(acetamidomethyl)bicyclo[1.1.1]pentan-1-yl]-2-(8-isopropyl-5-oxothieno[3′,2′:4,5]pyrrolo[1,2-d][1,2,4]triazin-6(5H)-yl)acetamide], for which the pIC50 was 6.46.
As to `Cc1ccc(NC(=O)Cn2nc(C(C)C)n3c(cc4ccsc43)c2=O)cn1` [Example 68, 2-(12-isopropyl-9-oxo-3-thia-1,10,11-triazatricyclo[6.4.0.02,6]dodeca-2(6),4,7,11-tetraen-10-yl)-N-(6-methyl-3-pyridyl)acetamide], the pIC50 was 5.64.
As for `CC(C)c1nn(CC(=O)N[C@@H]2CCCN(C3CCCC3)C2)c(=O)c2cc3ccsc3n12` [Example 49, N-[(3R)-1-cyclopentyl-3-piperidyl]-2-(12-isopropyl-9-oxo-3-thia-1,10,11-triazatricyclo [6.4.0.02,6]dodeca-2(6),4,7,11-tetraen-10-yl)acetamide], the pIC50 is 7.57.
As for `CC(C)c1nn(CC(=O)Nc2cncs2)c(=O)c2cc3cc(Cl)sc3n12` [Example 7, 2-(2-chloro-8-isopropyl-5-oxothieno[3′,2′:4,5]pyrrolo[1,2-d][1,2,4]triazin-6(5H)-yl)-N-(thiazol-5-yl)acetamide], the pIC50 is 5.75.
On to `CC(C)c1nn(C(C)C(=O)N[C@@H]2CCCN(C3CCC3)C2)c(=O)c2cc3ccsc3n12` (stereo partly drawn) [Example 25, N—((R)-1-cyclobutylpiperidin-3-yl)-2-(8-isopropyl-5-oxothieno[3′,2′:4,5]pyrrolo[1,2-d][1,2,4]triazin-6(5H)-yl)propanamide formate], for which the pIC50 is 6.11.
For the compound `CC(C)c1nn(CC(=O)NC2C[C@@H]3C[C@H]2N(C)C3)c(=O)c2cc3ccsc3n12` (stereo in doubt) [Example 82, N-[(1R,4R)-2-methyl-2-azabicyclo[2.2.1]heptan-6-yl]-2-(8-isopropyl-5-oxothieno [3′,2′:4,5]pyrrolo[1,2-d][1,2,4]triazin-6(5H)-yl)acetamide], the negative-log IC50 (pIC50) was 5.35.
On the same count and under the same terms, the result for `CC(C)(O)c1nn(CC(=O)N[C@@H]2CCCN(C3CC3)C2)c(=O)c2cc3ccsc3n12` [Example 52, (R)—N-(1-cyclopropylpiperidin-3-yl)-2-(8-(2-hydroxypropan-2-yl)-5-oxothieno[3′,2′:4,5]pyrrolo[1,2-d][1,2,4]triazin-6(5H)-yl)acetamide] reads 7.09; that for `CC(C)c1nn(CC(=O)N[C@@H]2CCCCN(C3CC3)C2)c(=O)c2cc3ccsc3n12` [Example 61, N-[(3R)-1-cyclopropylazepan-3-yl]-2-(12-isopropyl-9-oxo-3-thia-1,10,11-triazatricyclo [6.4.0.02,6]dodeca-2(6),4,7,11-tetraen-10-yl)acetamide], 6.80; that for `CC(C)c1nn(CC(=O)NC2CCCN(C(C)(C)C)C2)c(=O)c2cc3ccsc3n12` (stereo not shown) [Example 37, N-(1-(tert-butyl)piperidin-3-yl)-2-(8-isopropyl-5-oxothieno[3′,2′:4,5]pyrrolo[1,2-d][1,2,4]triazin-6(5H)-yl)acetamide formate], 7.35.
Same read-out and setting: the result for `CC(C)c1nn(CC(=O)N[C@@H]2CCCN(C3(C)CCCC3)C2)c(=O)c2cc3ccsc3n12` [Example 71, 2-(12-isopropyl-9-oxo-3-thia-1,10,11-triazatricyclo[6.4.0.02,6]dodeca-2(6),4,7,11-tetraen-10-yl)-N-[(3R)-1-(1-methylcyclopentyl)-3-piperidyl]acetamide] reads 7.15; that for `CCc1nn(CC(=O)N[C@@H]2CCCN(C)C2)c(=O)c2cc3ccsc3n12` [Example 73, 2-(12-ethyl-9-oxo-3-thia-1,10,11-triazatricyclo[6.4.0.02,6]dodeca-2(6),4,7,11-tetraen-10-yl)-N-[(3R)-1-methyl-3-piperidyl]acetamide], less than 5.00; that for `COCc1nn(CC(=O)N[C@@H]2CCCN(C3CC3)C2)c(=O)c2cc3cc(Cl)sc3n12` [Example 30, (R)-2-(2-chloro-8-(methoxymethyl)-5-oxothieno[3′,2′:4,5]pyrrolo[1,2-d][1,2,4]triazin-6(5H)-yl)-N-(1-cyclopropylpiperidin-3-yl)acetamide formate], 5.92.
Same read-out and setting: the result for `CC(C)c1nn(CC(=O)NC2CN(C)CC(F)(F)C2)c(=O)c2cc3cc(Cl)sc3n12` (stereo not shown) [Example 34, 2-(2-chloro-8-isopropyl-5-oxothieno[3′,2′:4,5]pyrrolo[1,2-d][1,2,4]triazin-6(5H)-yl)-N-(5,5-difluoro-1-methylpiperidin-3-yl)acetamide 2,2,2-trifluoroacetate] reads 5.21; that for `COCc1nn(CC(=O)N[C@@H]2CCCN(C3CCC3)C2)c(=O)c2cc3ccsc3n12` [Example 32, (R)—N-(1-cyclobutylpiperidin-3-yl)-2-(8-(methoxymethyl)-5-oxothieno [3′,2′:4,5]pyrrolo[1,2-d][1,2,4]triazin-6(5H)-yl)acetamide], 5.51; that for `CC(C)c1nn(CC(=O)NC2CC3(C2)CN(C)C3)c(=O)c2cc3ccsc3n12` [Example 83, N-(2-methyl-2-azaspiro[3.3]heptan-6-yl)-2-(8-isopropyl-5-oxothieno[3′,2′:4,5]pyrrolo[1,2-d][1,2,4]triazin-6(5H)-yl)acetamide], 5.73.
In the case of `CC(C)c1nn(CC(=O)NC2CCN(C3CC3)C2)c(=O)c2cc3ccsc3n12` (stereo not shown) [Example 86, N-(1-cyclopropylpyrrolidin-3-yl)-2-(12-isopropyl-9-oxo-3-thia-1,10,11-triazatricyclo [6.4.0.02,6]dodeca-2(6),4,7,11-tetraen-10-yl)acetamide], the negative-log IC50 (pIC50) is less than 5.00.
For `COc1cc(NC(=O)Cn2nc(C(C)C)n3c(cc4ccsc43)c2=O)ccn1` [Example 65, 2-(8-isopropyl-5-oxothieno[3′,2′:4,5]pyrrolo[1,2-d][1,2,4]triazin-6(5H)-yl)-N-(2-methoxypyridin-4-yl)acetamide], the pIC50 is 5.42.
Consider `CCc1nn(CC(=O)N[C@@H]2CCCN(C[C@H](C)O)C2)c(=O)c2cc3ccsc3n12` [Example 69, 2-(12-ethyl-9-oxo-3-thia-1,10,11-triazatricyclo[6.4.0.02,6]dodeca-2(6),4,7,11-tetraen-10-yl)-N-[(3R)-1-[(2S)-2-hydroxypropyl]-3-piperidyl]acetamide], for which the negative-log IC50 (pIC50) is 5.46.
In the case of `CC(C)c1nn(CC(=O)N[C@@H]2CCCN(CC#N)C2)c(=O)c2cc3ccsc3n12` [Example 75, N-[(3R)-1-(cyanomethyl)piperidin-3-yl]-2-(8-isopropyl-5-oxothieno[3′,2′:4,5]pyrrolo[1,2-d][1,2,4]triazin-6(5H)-yl)acetamide], the pIC50 is 6.80.
Still for that read-out and setting: to `CC(C)c1nn(CC(=O)NC2CCN(C(C)(C)C)C2)c(=O)c2cc3ccsc3n12` (racemic) [Example 87, 2-(12-isopropyl-9-oxo-3-thia-1,10,11-triazatricyclo[6.4.0.02,6]dodeca-2(6),4,7,11-tetraen-10-yl)-N-[rac-(3R)-1-tert-butylpyrrolidin-3-yl]acetamide] belongs less than 5.00; to `CC(C)c1nn(CC(=O)NC2CCCN(CC(F)(F)F)C2)c(=O)c2cc3ccsc3n12` (stereo not shown) [Example 38, 2-(8-isopropyl-5-oxothieno[3′,2′:4,5]pyrrolo[1,2-d][1,2,4]triazin-6(5H)-yl)-N-(1-(2,2,2-trifluoroethyl)piperidin-3-yl)acetamide 2,2,2-trifluoroacetate], 5.89; to `CC(C)c1nn(CC(=O)NC2CCC(=O)N(C)C2)c(=O)c2cc3ccsc3n12` (stereo not shown) [Example 47, 2-(8-isopropyl-5-oxothieno[3′,2′:4,5]pyrrolo[1,2-d][1,2,4]triazin-6(5H)-yl)-N-(1-methyl-6-oxopiperidin-3-yl)acetamide], 5.99.
For the compound `CC(C)c1nn(CC(=O)Nc2ccnn2C)c(=O)c2cc3ccsc3n12` [Example 53, 2-(12-isopropyl-9-oxo-3-thia-1,10,11-triazatricyclo[6.4.0.02,6]dodeca-2(6),4,7,11-tetraen-10-yl)-N-(2-methylpyrazol-3-yl)acetamide], the pIC50 was 5.97.
Turning to `CC(C)c1nn(CC(=O)N[C@@H]2CCCCN(C)C2)c(=O)c2cc3ccsc3n12` [Example 62, 2-(12-isopropyl-9-oxo-3-thia-1,10,11-triazatricyclo[6.4.0.02,6]dodeca-2(6),4,7,11-tetraen-10-yl)-N-[(3R)-1-methylazepan-3-yl]acetamide], the pIC50 is 6.07.
The same measure, in the same setting: to `CC(C)c1nn(CC(=O)N[C@@H]2CCCN(C3COC3)C2)c(=O)c2cc3ccsc3n12` [Example 40, (R)-2-(8-isopropyl-5-oxothieno[3′,2′:4,5]pyrrolo[1,2-d][1,2,4]triazin-6(5H)-yl)-N-(1-(oxetan-3-yl)piperidin-3-yl)acetamide] belongs 6.59.

The same experiment, now with this note: LPS-primed, read-out: IL1b IC50.
`CC(O)c1nn(CC(=O)N[C@@H]2CCCN(C3CC3)C2)c(=O)c2cc3ccsc3n12` (single isomer, unassigned) [Example 44]: the pIC50 is 6.56.
On to `CC(O)c1nn(CC(=O)N[C@@H]2CCCN(C3CC3)C2)c(=O)c2cc3ccsc3n12` (single isomer, unassigned) [Example 51], for which the pIC50 is less than 5.00.
